Experiments:
[1] = biological target: Neutrophil elastase (Homo sapiens) (UniProt P08246); conditions: Compound concentration 10.0 uM
[2] = biological target: Cyclin-dependent kinase 9 (Homo sapiens) (UniProt P50750); test: CDK9CYCLIN Invitrogen Lab (UK) kinase screen (BI); conditions: Compound concentration 1.0 uM
[3] = biological target: Sodium-dependent serotonin transporter (Homo sapiens) (UniProt P31645); conditions: Compound concentration 10.0 uM
[4] = biological target: AP2-associated protein kinase 1 (Homo sapiens, UniProt Q2M2I8); test: Dose response measurement (AAK1)
[5] = biological target: Mitogen-activated protein kinase 1 (Homo sapiens) (UniProt P28482); test: MAPK2ERK2 DUNDEE kinase screen (BI); conditions: Mus musculus; Compound concentration 10.0 uM
[6] = biological target: Focal adhesion kinase 1 (Homo sapiens) (UniProt Q05397); conditions: Compound concentration 1.0 uM
[7] = biological target: D(3) dopamine receptor (Homo sapiens) (UniProt P35462); conditions: Compound concentration 10.0 uM
Sequence of D(3) dopamine receptor (Homo sapiens) (P35462 whole entry): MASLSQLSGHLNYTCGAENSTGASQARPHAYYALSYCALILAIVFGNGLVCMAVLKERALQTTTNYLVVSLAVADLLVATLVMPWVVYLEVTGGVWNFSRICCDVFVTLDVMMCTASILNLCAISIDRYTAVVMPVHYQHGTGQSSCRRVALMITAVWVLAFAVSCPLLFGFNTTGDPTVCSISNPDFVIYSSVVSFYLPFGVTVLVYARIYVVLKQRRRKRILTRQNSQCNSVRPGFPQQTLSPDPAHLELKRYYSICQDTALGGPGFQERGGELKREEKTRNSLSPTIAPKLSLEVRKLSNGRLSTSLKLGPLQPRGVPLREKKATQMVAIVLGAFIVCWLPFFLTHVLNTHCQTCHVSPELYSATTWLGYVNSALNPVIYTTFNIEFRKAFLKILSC

[8] = biological target: Tyrosine-protein kinase Fes/Fps (Homo sapiens) (UniProt P07332); conditions: Compound concentration 1.0 uM
[9] = biological target: STE20-like serine/threonine-protein kinase (Homo sapiens) (UniProt Q9H2G2); conditions: Compound concentration 1.0 uM
[10] = biological target: Protein-tyrosine kinase 2-beta (Homo sapiens) (UniProt Q14289)
[11] = biological target: Serine/threonine-protein kinase PLK1 (Homo sapiens) (UniProt P53350)
Sequence of Serine/threonine-protein kinase PLK1 (Homo sapiens) (P53350 whole entry): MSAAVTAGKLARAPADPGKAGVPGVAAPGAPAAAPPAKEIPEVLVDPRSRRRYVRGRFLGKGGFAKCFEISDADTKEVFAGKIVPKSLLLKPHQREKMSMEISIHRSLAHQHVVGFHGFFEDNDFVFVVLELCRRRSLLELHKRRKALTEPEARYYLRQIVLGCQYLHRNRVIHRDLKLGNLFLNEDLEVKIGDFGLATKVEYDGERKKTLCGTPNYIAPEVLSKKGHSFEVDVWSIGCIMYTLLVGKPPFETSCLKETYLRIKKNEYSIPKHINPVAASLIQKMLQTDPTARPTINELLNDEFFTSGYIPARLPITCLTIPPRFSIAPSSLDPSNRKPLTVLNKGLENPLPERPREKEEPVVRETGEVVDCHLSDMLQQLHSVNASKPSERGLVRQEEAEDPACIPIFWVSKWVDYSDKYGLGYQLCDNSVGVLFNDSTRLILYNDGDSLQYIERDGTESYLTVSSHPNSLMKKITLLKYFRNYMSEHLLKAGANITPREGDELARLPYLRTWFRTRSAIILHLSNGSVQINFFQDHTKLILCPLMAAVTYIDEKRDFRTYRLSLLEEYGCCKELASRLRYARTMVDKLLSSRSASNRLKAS

[12] = biological target: 5-hydroxytryptamine receptor 2A (Homo sapiens) (UniProt P28223); conditions: Compound concentration 10.0 uM
[13] = biological target: Ribosomal protein S6 kinase alpha-3 (Homo sapiens) (UniProt P51812); test: MAPKAP-K1B DUNDEE kinase screen (BI); conditions: Compound concentration 10.0 uM
[14] = biological target: Ephrin type-B receptor 2 (Homo sapiens) (UniProt P29323); conditions: Compound concentration 1.0 uM
[15] = biological target: Serine/threonine-protein kinase pim-2 (Homo sapiens) (UniProt Q9P1W9); conditions: Compound concentration 10.0 uM
[16] = biological target: CDK4/Cyclin D3 (Homo sapiens) (UniProt P11802+P30281); conditions: Compound concentration 1.0 uM
[17] = biological target: Serine/threonine-protein kinase Sgk1 (Homo sapiens) (UniProt O00141); conditions: Compound concentration 1.0 uM
[18] = biological target: Dual specificity mitogen-activated protein kinase kinase 2 (Homo sapiens) (UniProt P36507); conditions: Compound concentration 1.0 uM
[19] = biological target: T1, D(4) dopamine receptor (Homo sapiens) (UniProt P21917); conditions: Compound concentration 10.0 uM
T1 sequence (whole entry): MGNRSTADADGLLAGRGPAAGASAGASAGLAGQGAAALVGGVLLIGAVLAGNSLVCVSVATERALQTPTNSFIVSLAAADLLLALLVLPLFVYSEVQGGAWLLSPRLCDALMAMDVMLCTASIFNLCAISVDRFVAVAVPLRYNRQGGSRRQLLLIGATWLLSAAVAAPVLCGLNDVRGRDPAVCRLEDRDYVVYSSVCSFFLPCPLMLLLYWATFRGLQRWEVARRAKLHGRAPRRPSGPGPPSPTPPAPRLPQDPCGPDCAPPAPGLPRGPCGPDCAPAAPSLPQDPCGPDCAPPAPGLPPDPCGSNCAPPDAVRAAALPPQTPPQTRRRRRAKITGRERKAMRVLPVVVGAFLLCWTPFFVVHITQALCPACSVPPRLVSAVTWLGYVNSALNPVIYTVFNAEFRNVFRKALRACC

[20] = biological target: AMPK alpha1/beta1/gamma3 (Homo sapiens) (UniProt Q9Y478+Q13131+Q9UGI9); test: AMPK (A1/B1/G3) Invitrogen Lab (UK) kinase screen (BI); type: protein-complex assay; conditions: Compound concentration 1.0 uM
[21] = biological target: Protein kinase C theta type (Homo sapiens) (UniProt Q04759); conditions: Compound concentration 1.0 uM
[22] = biological target: Myotonin-protein kinase (Homo sapiens) (UniProt Q09013); conditions: Compound concentration 1.0 uM
Sequence of Myotonin-protein kinase (Homo sapiens) (Q09013 whole entry): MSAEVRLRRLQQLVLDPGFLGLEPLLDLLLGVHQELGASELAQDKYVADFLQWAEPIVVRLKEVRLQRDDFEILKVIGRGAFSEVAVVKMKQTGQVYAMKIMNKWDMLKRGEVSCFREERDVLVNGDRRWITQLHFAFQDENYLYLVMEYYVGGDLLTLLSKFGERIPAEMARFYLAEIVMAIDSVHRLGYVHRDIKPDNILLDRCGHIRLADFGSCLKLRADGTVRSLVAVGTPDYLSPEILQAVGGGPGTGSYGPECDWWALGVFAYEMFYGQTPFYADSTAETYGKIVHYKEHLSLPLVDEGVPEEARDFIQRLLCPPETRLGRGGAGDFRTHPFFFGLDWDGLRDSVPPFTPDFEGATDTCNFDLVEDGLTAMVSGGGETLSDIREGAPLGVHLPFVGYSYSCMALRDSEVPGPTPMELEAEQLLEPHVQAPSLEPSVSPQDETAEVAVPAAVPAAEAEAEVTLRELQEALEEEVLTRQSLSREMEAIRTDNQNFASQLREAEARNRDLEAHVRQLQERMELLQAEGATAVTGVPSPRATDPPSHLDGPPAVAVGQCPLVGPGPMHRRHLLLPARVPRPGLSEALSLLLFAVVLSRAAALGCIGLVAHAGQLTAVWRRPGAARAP

[23] = biological target: Serine/threonine-protein kinase Sgk3 (Homo sapiens) (UniProt Q96BR1); conditions: Compound concentration 1.0 uM
[24] = biological target: Atypical kinase COQ8A, mitochondrial (Homo sapiens) (UniProt Q8NI60); test: ADCK3 Invitrogen Lab (UK) kinase screen (BI); conditions: Compound concentration 1.0 uM
[25] = biological target: RAF proto-oncogene serine/threonine-protein kinase (Homo sapiens) (UniProt P04049); test: RAF1 Invitrogen Lab (UK) kinase screen (BI); conditions: Compound concentration 1.0 uM
[26] = biological target: D(3) dopamine receptor (Homo sapiens) (UniProt P35462); conditions: Compound concentration 10.0 uM; remark: listed apart in the source
[27] = biological target: Insulin receptor-related protein (Homo sapiens) (UniProt P14616); conditions: Compound concentration 1.0 uM
[28] = biological target: Prostaglandin G/H synthase 2 (Homo sapiens) (UniProt P35354); conditions: Compound concentration 10.0 uM
[29] = biological target: 5'-AMP-activated protein kinase catalytic subunit alpha-2/beta-1/gamma-2 (Homo sapiens) (UniProt P54646+Q9UGJ0+Q9Y478); test: AMPK (A2/B1/G2) Invitrogen Lab (UK) kinase screen (BI); type: protein-complex assay; conditions: Compound concentration 1.0 uM
[30] = biological target: Receptor-interacting serine/threonine-protein kinase 2 (Homo sapiens) (UniProt O43353); conditions: Compound concentration 1.0 uM
[31] = biological target: Nitric oxide synthase, inducible (Mus musculus) (UniProt P29477); conditions: Compound concentration 10.0 uM
[32] = biological target: DNA-dependent protein kinase catalytic subunit (Homo sapiens) (UniProt P78527); conditions: Compound concentration 1.0 uM
[33] = biological target: Phosphatidylinositol 3-kinase C2 domain-containing subunit gamma (Homo sapiens) (UniProt O75747); conditions: Compound concentration 1.0 uM
[34] = biological target: Receptor tyrosine-protein kinase erbB-2 (Homo sapiens) (UniProt P04626)
Sequence of Receptor tyrosine-protein kinase erbB-2 (Homo sapiens) (P04626 whole entry): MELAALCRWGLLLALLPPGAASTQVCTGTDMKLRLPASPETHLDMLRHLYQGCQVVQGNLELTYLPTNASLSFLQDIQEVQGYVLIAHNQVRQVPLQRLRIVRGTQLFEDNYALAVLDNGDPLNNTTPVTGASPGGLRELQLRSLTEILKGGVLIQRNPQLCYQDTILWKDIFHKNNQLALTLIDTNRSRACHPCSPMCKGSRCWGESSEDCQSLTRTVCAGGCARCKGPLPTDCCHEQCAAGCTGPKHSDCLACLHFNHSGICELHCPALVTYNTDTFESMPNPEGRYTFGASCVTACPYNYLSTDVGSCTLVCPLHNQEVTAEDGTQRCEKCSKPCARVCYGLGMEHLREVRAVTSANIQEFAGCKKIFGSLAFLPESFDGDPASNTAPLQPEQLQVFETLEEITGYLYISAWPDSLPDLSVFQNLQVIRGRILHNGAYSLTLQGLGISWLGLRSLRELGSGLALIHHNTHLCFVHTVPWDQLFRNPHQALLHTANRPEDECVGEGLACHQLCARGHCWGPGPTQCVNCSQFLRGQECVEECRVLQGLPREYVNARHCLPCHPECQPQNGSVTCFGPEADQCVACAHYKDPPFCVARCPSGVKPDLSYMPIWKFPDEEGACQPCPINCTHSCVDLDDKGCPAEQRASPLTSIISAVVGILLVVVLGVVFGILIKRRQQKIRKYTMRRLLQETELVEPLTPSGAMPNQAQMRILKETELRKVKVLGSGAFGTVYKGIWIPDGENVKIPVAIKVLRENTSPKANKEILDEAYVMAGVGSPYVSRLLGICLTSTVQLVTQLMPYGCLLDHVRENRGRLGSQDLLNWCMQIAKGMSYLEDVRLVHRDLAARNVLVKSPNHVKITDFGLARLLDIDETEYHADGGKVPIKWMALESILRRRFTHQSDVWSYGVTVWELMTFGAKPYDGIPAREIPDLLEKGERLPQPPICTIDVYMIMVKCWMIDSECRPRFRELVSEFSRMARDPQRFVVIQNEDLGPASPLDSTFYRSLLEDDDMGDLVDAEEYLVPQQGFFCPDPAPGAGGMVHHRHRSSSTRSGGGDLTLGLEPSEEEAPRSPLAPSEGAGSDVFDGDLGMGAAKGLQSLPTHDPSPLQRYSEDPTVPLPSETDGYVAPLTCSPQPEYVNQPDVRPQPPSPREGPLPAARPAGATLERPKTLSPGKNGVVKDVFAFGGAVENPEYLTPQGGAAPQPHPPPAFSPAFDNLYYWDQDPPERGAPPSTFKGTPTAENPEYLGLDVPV

[35] = biological target: CDK3/Cyclin E (Homo sapiens) (UniProt P24864+Q00526); test: CDK3/CYCLIN E1 Invitrogen Lab (UK) kinase screen (BI); type: protein-complex assay; conditions: Compound concentration 1.0 uM
[36] = biological target: Voltage-dependent L-type calcium channel subunit alpha-1C (CA+/PAASITE) (Rattus norvegicus, UniProt P22002); test: CA+/PAASITE Eurofins SafetyScreen44 (BI); conditions: read-out: % Ctrl
Sequence of Voltage-dependent L-type calcium channel subunit alpha-1C (CA+/PAASITE) (P22002 whole entry): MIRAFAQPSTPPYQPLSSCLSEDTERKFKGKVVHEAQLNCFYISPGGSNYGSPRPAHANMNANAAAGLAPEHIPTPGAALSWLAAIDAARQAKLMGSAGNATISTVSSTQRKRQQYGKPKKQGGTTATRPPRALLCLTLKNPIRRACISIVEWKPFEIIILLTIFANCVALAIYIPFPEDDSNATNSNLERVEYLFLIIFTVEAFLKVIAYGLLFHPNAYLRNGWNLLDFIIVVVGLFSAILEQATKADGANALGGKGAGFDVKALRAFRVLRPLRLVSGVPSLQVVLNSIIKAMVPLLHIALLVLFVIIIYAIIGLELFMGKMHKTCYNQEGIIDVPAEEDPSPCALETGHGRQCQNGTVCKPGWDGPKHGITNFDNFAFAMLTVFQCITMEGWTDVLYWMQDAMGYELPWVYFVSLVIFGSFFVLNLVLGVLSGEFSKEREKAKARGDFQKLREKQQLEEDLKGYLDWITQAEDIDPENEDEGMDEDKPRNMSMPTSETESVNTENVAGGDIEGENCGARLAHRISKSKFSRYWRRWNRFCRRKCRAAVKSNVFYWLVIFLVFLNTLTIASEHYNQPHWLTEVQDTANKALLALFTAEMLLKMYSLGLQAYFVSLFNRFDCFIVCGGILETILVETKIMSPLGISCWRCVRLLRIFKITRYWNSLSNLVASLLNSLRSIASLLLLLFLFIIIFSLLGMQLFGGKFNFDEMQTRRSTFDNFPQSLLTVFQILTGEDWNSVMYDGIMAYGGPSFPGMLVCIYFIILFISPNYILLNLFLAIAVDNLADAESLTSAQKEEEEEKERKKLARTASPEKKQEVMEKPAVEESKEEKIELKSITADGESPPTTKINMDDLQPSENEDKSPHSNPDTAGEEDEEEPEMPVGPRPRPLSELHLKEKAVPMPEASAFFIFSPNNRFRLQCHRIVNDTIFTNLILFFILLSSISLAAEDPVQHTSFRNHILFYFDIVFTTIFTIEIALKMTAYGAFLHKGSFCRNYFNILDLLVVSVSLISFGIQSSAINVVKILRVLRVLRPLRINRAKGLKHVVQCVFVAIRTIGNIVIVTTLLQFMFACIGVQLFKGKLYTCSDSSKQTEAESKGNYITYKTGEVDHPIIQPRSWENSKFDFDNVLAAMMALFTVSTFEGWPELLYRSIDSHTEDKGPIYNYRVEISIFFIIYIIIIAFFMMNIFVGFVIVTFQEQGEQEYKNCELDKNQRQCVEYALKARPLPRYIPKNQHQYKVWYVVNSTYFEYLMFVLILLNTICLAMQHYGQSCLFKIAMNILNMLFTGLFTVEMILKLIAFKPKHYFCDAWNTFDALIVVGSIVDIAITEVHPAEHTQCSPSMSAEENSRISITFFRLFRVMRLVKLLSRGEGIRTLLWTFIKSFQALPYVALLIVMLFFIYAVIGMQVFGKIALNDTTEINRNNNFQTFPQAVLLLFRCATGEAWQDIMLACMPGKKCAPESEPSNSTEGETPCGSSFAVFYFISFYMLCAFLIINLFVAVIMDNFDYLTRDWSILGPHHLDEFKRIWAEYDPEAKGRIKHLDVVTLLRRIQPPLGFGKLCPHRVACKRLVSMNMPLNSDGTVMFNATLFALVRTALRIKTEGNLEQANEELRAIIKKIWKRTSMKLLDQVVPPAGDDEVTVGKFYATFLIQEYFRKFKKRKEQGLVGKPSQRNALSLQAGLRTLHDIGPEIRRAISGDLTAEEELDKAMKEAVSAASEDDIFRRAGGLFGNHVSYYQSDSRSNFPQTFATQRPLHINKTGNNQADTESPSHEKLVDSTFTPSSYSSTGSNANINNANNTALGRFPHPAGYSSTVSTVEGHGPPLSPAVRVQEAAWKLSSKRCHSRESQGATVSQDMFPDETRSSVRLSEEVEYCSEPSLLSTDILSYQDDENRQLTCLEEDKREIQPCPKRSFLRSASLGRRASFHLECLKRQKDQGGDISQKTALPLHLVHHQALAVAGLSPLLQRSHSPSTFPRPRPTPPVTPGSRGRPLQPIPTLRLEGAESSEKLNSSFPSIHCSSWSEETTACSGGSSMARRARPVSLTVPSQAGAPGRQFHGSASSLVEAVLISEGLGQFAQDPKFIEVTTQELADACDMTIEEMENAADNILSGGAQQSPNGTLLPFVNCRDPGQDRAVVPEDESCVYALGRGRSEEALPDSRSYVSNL

[37] = biological target: 3-hydroxy-3-methylglutaryl-coenzyme A reductase (Rattus norvegicus) (UniProt P51639); test: HMGCOARED Eurofins SafetyScreen44 (BI); conditions: Compound concentration 10.0 uM

CCC(F)(F)c1cc(N2CCC(S(C)(=O)=O)CC2)nc2sc(C(N)=O)c(N)c12 [BI-605906]
residual activity [1]: 98% | residual activity [2]: 86% | residual activity [3]: 108% | IC50 [4]: 272 nM | residual activity [5]: 90.1% | residual activity [6]: 87% | residual activity [7]: 105% | residual activity [8]: 91% | residual activity [9]: 99% | residual activity ([10]; Compound concentration 1.0 uM): 91% | residual activity ([10]; Compound concentration 10.0 uM): 70% | residual activity ([11]; Compound concentration 1.0 uM): 94% | residual activity ([11]; Compound concentration 10.0 uM): 109% | inhibition [12]: 6.1% | residual activity [13]: 78.2% | residual activity [14]: 89% | residual activity [15]: 101% | residual activity [16]: 97% | residual activity [17]: 97% | residual activity [18]: 91% | inhibition [19]: 44.6% | residual activity [20]: 84% | residual activity [21]: 101% | residual activity [22]: 95% | residual activity [23]: 96% | residual activity [24]: 67% | residual activity [25]: 78% | inhibition [26]: 51.5% | residual activity [27]: 92% | residual activity [28]: 82% | residual activity [29]: 88% | residual activity [30]: 94% | residual activity [31]: 108% | residual activity [32]: 90% | residual activity [33]: 90% | residual activity ([34]; Compound concentration 1.0 uM): 96% | residual activity ([34]; Compound concentration 10.0 uM): 86% | residual activity [35]: 78% | activity at 10 µM ([36]; compound concentration 10 uM): 99% (not active) | activity at 100 µM ([36]; compound concentration 100 uM): 70% (not active) | residual activity [37]: 85%
